Legend:
[1] = tested on: Nakano mouse lens epithelial cells; assay: In vitro cell growth assay (3H-thymidine incorporation, cell counts), serum free; assay type: cell-based
Procedure: (§1) Cell growth assays were performed as previously described in Reid et al., (1987), J. Biol. Chem. 262:229-233. Briefly, cells were grown to confluence in 96-well plates in media plus serum and arrested in G0/G1 by either serum starvation for 2-days (epithelial cells) or 8-10 day serum depletion followed by serum starvation for 1-day (fibroblasts). At this point the media was removed and new media with the desired factors was added. Approximately 16 hours later ^3 -thymidine was added and 20 to 28 hours later the cells were washed, lysed and the amount of ^3 H-thymidine incorporated into DNA was measured. In some cases, actual cell counts were performed.
(§2) The growth stimulatory properties of human defensins HNP-1, HNP-2, HNP-3 and rabbit defensins NP-1 and NP-5 in a serum free growth assay system were tested. SIRC rabbit corneal epithelial cells, Nakano mouse lens epithelial cells, and NIH 3T3 fibroblasts were utilized in these studies.

[2] = tested on: NIH 3T3 fibroblasts; assay: In vitro cell growth assay (3H-thymidine incorporation), serum free; assay type: cell-based
Procedure: as §1, §2

[3] = tested on: SIRC rabbit corneal epithelial cells; assay: as above; assay type: cell-based
Procedure: as §1, §2

[4] = tested on: capsaicin-treated corneas; assay type: in vivo
Procedure: Capsaicin-treated corneas from adult rabbits were used to determine the effects of topically applied defensins on corneal re-epithelialization. Capsaicin depletes neuropeptides which have an effect on wound healing (data not shown). The rabbits received 0.4 ml of lidocaine diluted in 2.6 ml of sterile saline delivered subcutaneously between the cranial aspect of the interscapular space. After 10 minutes, 50 mg/kg of capsaicin (100 mg/ml) was delivered through a 11/2 inch 25 gauge needle. Repeat injections of capsaicin was given once a day for four additional days. Three weeks from the last injection bilateral corneal defects were created as described below and the eyes treated topically with test solutions. The cornea was treated with two drops of test solution after creation of the epithelial defect. Upon completion of surgery, the rabbit was returned to its cage onto a warm heating pad. Sequential corneal photographs were taken after installation of fluoroscein and the rate of epithelial wound healing determined.
The effects of topically applied HNP-1 on the epithelial wound healing of neuropeptide depleted rabbit corneas was investigated. Corneas of rabbits treated systemically with capsaicin have impaired epithelial healing. In this model, capsaicin (50 mg/kg) was injected subcutaneously for 5 consecutive days into New Zealand white rabbits. Lidocaine was delivered subcutaneously into the capsaicin injection site 10 minutes prior to the first injection. Three weeks after the injections, the animals were anesthetized (ketamine/xylazine), topical anesthetic applied to the cornea, and the epithelium debrided circumferentially to the limbal margin of clear cornea. Absolute alcohol on microcellulose sponges and a dull #15 Bard Parker blade were used to remove the epithelium. Care was taken that no alcohol ran over the clear corneal edge to damage the limbal epithelium. The corneas were stained with fluorescein and photographed twice daily to monitor re-epithelialization. […]

[5] = tested on: panel of organisms in stationary growth phase; details: cited from earlier work

HNP-1: human neutrophil defensin peptide isolated from PMN; sequence in Table 1
growth promoting response with bovine serum albumin ([1]; 5 mg/ml BSA added at varying times after stimulation (FIGS. 7 and 8), preliminary): response curve is shifted to the right and that the plateau phase is extended | suppression at higher concentrations ([2]; 3T3 fibroblast cells, higher concentrations): not observed | stimulatory properties (DNA synthesis) ([2]; 3T3 fibroblasts, presence and absence of insulin (FIG. 10)): stimulatory | stimulatory properties (DNA synthesis) ([3]; corneal epithelial cells (FIG. 9)): stimulatory | effect at higher concentrations ([3]; corneal epithelial cells, higher concentrations): suppression observed at higher concentrations | time to re-epithelialization of treated eye ([4]; 100 μg/ml topical 4 times a day, control eye healed at 6.5 days): 5.5 days | re-epithelialization of treated versus fellow control eye ([4]; 100 μg/ml topical, one rabbit): both corneas re-epithelialized simultaneously | effect on the cornea or conjunctiva (tolerability) ([4]; topical, 4 times a day, 40 or 100 μg/ml in sterile water, four rabbits): no deleterious effect on the cornea or conjunctiva | relative antimicrobial potency among defensins [5]: most potent antimicrobial properties

HNP-3: human neutrophil defensin peptide; sequence in Table 1
actual cell number ([1]; cell counts (FIG. 6)): increase in actual cell number | stimulatory effect on cell number compared with insulin and EGF ([1]; insulin and EGF at concentrations which elicit maximal response (FIG. 6)): surpassed that of insulin and EGF

Source: US5242902A, “Defensin peptide compositions and methods for their use” (The Regents of the University of California, priority 1989, dated 1993)
